From patent US20250257060A1, “OXADIAZOLE COMPOUND, PHARMACEUTICAL COMPOSITION COMPRISING SAME, AND USE THEREOF” (SUZHOU GENHOUSE BIO CO., LTD., priority 2022, published 2025)
Where two headings read alike, the source gives them in different places.

What was measured:
[1] = system: acetylation level of α-tubulin in HCT116 cells; test: Assay on acetylation level of α-tubulin, HCT116 cells; assay type: cell-based; conditions: Homo sapiens, HCT-116, 6 h
Protocol: A375/HCT116/HCC827 cells at a logarithmic growth phase were taken, digested with a […] (trypsin), centrifuged, counted, and plated in a 96-well plate at an appropriate cell density (30,000 cells/well) at 100 µL/well, and an appropriate amount of PBS was added around the plate for water sealing. The next day, the cells were treated with the compounds at different concentrations (starting at 100 μM, 5-fold dilution, 9 concentration gradients). After 6 h, the medium was pipetted out and the cells were washed twice with 100 μL of PBST. The cells were then immobilized in 4% paraformaldehyde, and the plate was incubated at room temperature for 20 min. The stationary liquid was discarded and the cells were washed with PBST. 150 μL of special blocking buffer (containing 1% Triton-100) was added to each well for blocking at room temperature for 2 h, and the plate was washed with PBS to remove excess blocking buffer. α-tubulin (DM1A) mouse mAb and acetyl-α-tubulin (Lys40) (D20G3) XP rabbit mAb were diluted at a 1:2000 ratio with a blocking buffer containing 0.033% Triton-100. The dilutions were added to the 96-well plate and the plate was incubated overnight at 4° C. Meanwhile, a blank control group was set. The next day, the plate was washed twice with PBST. Secondary anti-mouse IgG (H+L) (DyLight™ 680 conjugate) and anti-rabbit IgG (H+L) (DyLight™ 800 conjugate) were diluted at a 1:2000 ratio with a blocking buffer containing 0.033% Triton-100. The dilutions were added to a 96-well plate and the plate was incubated at room temperature for 2 h. The plate was washed twice with PBST and once with PBS. Fluorescence signals at 700 nm and 800 nm were detected with a Li-COR Odyssey two-color near-infrared laser imager.

[2] = Pharmacokinetic test in mice (IV and PO); assay type: in vivo, BALB/c mice; conditions: for Cmax / AUC(0-inf) / AUC(0-t) / MRT inf / Vd / Tmax: BALB/c, mouse, plasma; for MRT inf: read-out: MRT(0-∞); for Vd: read-out: Vz
Protocol: In this example, the pharmacokinetic behavior of the compounds after intravenous injection (IV) and intragastric (PO) administration in BALB/c mice was tested.
On the day of administration, mice were weighed for actual body weight and the administration volume was calculated. Each compound was tested in two groups with 3 mice in each group, one group administered by single intravenous injection and the other group of mice by single intragastric administration. Whole blood samples were collected via the orbit at prescribed time points (0.25 h, 0.5 h, 1 h, 2 h, 4 h, 8 h, and 24 h after administration). After blood sample collection, the samples were immediately transferred to labeled commercial sample tubes containing K2-EDTA (0.85-1.15 mg), followed by centrifugation (3200×g, 4° C., 10 min) and plasma collection. The plasma was transferred to a pre-cooled centrifuge tube, frozen in dry ice, and stored in an ultra-low temperature freezer at −60° C. or lower until the LC-MS/MS analysis.
Plasma concentrations were determined by a LC-MS/MS method. Plasma drug concentration data for compounds 1 and 2 were processed in a non-compartmental model using WinNonlin Version 6.3 (Pharsight, Mountain View, CA) pharmacokinetic software. The relevant pharmacokinetic parameters were calculated by a linear logarithmic trapezoid method.

[3] = Brain-to-blood drug concentration ratio of mice; assay type: in vivo; conditions: mouse, 5 mg/kg PO
Protocol: On the day of administration, mice were weighed for actual body weight and the administration volume was calculated. In each group of 9 mice, the compound was administered by single intravenous (IV) injection or intragastric (PO) administration. Whole blood samples were collected via the orbit at prescribed time points. After blood sample collection, the samples were immediately transferred to labeled commercial sample tubes containing K2-EDTA (0.85-1.15 mg), followed by centrifugation (3200×g, 4° C., 10 min) and plasma collection. The plasma was transferred to a pre-cooled centrifuge tube, frozen in dry ice, and stored in an ultra-low temperature freezer at −60° C. or lower until the LC-MS/MS analysis. 20 μL of a plasma sample or brain tissue homogenate was taken and 80 μL of an internal standard solution (50 ng/mL solution of propafenone in acetonitrile) was added. The plate was sealed with a film sealer at 165° C., shaken on a micro oscillator (maximum vibration speed) for 10 min, and centrifuged at 4000 rpm for 20 min using a low-speed benchtop centrifuge, 10 μL of supernatant was transferred and 90 μL of acetonitrile was added. The mixture was vortexed and mixed well, and then the plate was sealed with the film sealer at 165° C. After the mixture was vortexed and mixed well, 1 μL of supernatant was taken for LC-MS/MS analysis. Plasma drug concentration data for the compounds were processed in a non-compartmental model using WinNonlin Version 6.3 (Pharsight, Mountain View, CA) pharmacokinetic software. The relevant pharmacokinetic parameters were calculated by a linear logarithmic trapezoid method.
Data processing: brain-to-blood drug concentration ratio of mice at the same time point=drug concentration in brain tissue/drug concentration in plasma

HDAC6 = HDAC6 (Homo sapiens (Human), UniProt Q9UBN7); test: HDAC6 enzymatic activity assay; assay type: biochemical
Sequence of HDAC6 (Q9UBN7 whole entry): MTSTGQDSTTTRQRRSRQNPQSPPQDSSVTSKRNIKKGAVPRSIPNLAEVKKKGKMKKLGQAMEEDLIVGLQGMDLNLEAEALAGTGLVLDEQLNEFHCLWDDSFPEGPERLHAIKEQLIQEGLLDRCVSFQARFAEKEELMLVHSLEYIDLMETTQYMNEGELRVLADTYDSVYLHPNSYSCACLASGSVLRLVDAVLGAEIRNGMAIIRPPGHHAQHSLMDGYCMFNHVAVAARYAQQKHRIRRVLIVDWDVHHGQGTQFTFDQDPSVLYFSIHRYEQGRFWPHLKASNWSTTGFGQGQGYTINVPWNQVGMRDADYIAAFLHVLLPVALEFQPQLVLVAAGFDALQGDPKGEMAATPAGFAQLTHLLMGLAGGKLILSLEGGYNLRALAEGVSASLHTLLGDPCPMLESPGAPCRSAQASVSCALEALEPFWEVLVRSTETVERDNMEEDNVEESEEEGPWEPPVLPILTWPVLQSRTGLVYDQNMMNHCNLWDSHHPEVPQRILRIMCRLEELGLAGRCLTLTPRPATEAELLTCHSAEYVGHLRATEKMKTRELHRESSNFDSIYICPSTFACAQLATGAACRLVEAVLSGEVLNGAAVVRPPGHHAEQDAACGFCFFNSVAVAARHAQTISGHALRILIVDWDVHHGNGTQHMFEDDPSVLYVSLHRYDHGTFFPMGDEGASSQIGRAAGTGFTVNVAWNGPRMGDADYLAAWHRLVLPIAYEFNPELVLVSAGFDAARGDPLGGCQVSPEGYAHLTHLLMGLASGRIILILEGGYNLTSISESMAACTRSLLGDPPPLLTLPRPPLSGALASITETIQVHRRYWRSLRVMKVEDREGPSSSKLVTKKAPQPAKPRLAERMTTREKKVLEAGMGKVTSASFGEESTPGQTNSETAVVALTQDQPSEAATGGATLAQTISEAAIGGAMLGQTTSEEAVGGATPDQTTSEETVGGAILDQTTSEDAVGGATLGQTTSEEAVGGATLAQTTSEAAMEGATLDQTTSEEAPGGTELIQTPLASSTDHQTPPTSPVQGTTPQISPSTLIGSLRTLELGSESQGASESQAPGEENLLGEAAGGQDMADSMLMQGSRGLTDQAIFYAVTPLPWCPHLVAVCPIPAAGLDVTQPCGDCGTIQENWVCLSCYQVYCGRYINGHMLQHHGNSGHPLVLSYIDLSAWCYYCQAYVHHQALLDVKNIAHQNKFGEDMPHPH
Protocol: The inhibitory activity of the compounds of the present application against HDAC6 was evaluated by an enzymatic activity assay. HDAC6 (Abcam), test compounds, and a 20 µM substrate solution (Ac-GAK(Ac)-AMC) were each added to a 384-well plate, and the plate was incubated at 37° C. for 30 min. […] and […] were added, and the plate was incubated at room temperature for 15 min. […] IC50 was obtained by fitting using GraphPadPrism 7.0 software.

[4] = brain, read-out: Brain drug concentration
[5] = plasma, read-out: Blood drug concentration

Row | SMILES | EC50 [1] [nM] | Cmax ([2]; po, 5 mg/kg, read-out: C0/Cmax) [µM] | AUC(0-inf) ([2]; mice, IV 1 mg/kg) [µM·h] | AUC(0-t) ([2]; mice, IV 1 mg/kg) [µM·h] | Cmax ([2]; mice, IV 1 mg/kg (C0)) [µM] | MRT inf ([2]; mice, IV 1 mg/kg) [h] | Vd ([2]; mice, IV 1 mg/kg) [L/kg] | AUC(0-inf) ([2]; mice, PO 5 mg/kg) [µM·h] | AUC(0-t) ([2]; mice, PO 5 mg/kg) [µM·h] | Tmax ([2]; mice, PO 5 mg/kg) [h] | MRT inf ([2]; mice, PO 5 mg/kg) [h] | CLz ([2]; mice, IV 1 mg/kg) [mL/min/kg] | t½z ([2]; mice, IV 1 mg/kg) [h] | F ([2]; mice, PO 5 mg/kg) [%] | t½z ([2]; mice, PO 5 mg/kg) [h] | concentration at 1 h [3, 4] [ng/mL] | concentration at 2 h [3, 4] [ng/mL] | Kp at 2 h ([3]; brain/plasma) | concentration at 2 h [3, 5] [ng/mL] | IC50 (HDAC6) [nM] | further results
1 | O=C(N[C@@H]1CCOC[C@H]1N1Cc2ccc(-c3nnc(C(F)F)o3)cc2S1(=O)=O)C(F)F [Compound 14] | 124 | 7.27 | 4.27 | 4.22 | 3.15 | 1.5 | 0.928 | 15.2 | 14.8 | 0.5 | 1.88 | 8.4 | 1.277 | 71.27 | 1.48 | 85.6 | 42.8 | 0.03 | 1380 | – | Kp at 1 h ([3]; brain/plasma): 0.03; concentration at 1 h [3, 5]: 2450 ng/mL
2 | O=C(N[C@@H]1CCCC[C@H]1N1Cc2ccc(-c3nnc(C(F)F)o3)cc2S1(=O)=O)C1CC1 [Compound 114] | 351 | – | – | – | – | – | – | – | – | – | – | – | – | – | – | – | – | – | – | 97.5 | –
3 | O=S1(=O)c2cc(-c3nnc(C(F)F)o3)ccc2CN1[C@@H](c1ccc(F)cn1)[C@H](O)c1ccc(F)cn1 (single isomer, unassigned) [Compound 88j-A-B] | 618 | – | – | – | – | – | – | – | – | – | – | – | – | – | – | – | – | – | – | 160 | –
4 | O=C(N[C@@H]1CCCC[C@H]1N1Cc2ccc(-c3nnc(C(F)F)o3)cc2S1(=O)=O)N1CCOCC1 [Compound 113] | 239 | 5.13 | 1.71 | 1.7 | 3.47 | 0.542 | 1.03 | 8.71 | 8.64 | 0.25 | 1.47 | 19.58 | 0.605 | 101.8 | 1.149 | 44.8 | 16.2 | 0.02 | 930 | – | Kp at 1 h ([3]; brain/plasma): 0.03; concentration at 1 h [3, 5]: 1400 ng/mL
5 | O=S1(=O)c2cc(-c3nnc(C(F)F)o3)ccc2CN1[C@@H](c1ccccn1)[C@H](O)c1ccc(F)cn1 (single isomer, unassigned) [Compound 84j-A] | 544 | – | – | – | – | – | – | – | – | – | – | – | – | – | – | – | – | – | – | 42.7 | –
6 | CC(F)(F)C(=O)N[C@@H]1CCCC(F)(F)[C@H]1N1Cc2ccc(-c3nnc(C(F)F)o3)cc2S1(=O)=O [Compound 10] | 262 | 4.77 | 3.68 | 3.48 | 1.72 | 2.5 | 1.5 | 21.5 | 19.9 | 0.5 | 3.3 | 8.3 | 1.9 | 117.1 | 2.1 | – | 338 | 0.17 | 2020 | 43.1 | concentration at 8 h ([3]; brain, 8 h, read-out: Brain drug concentration): 80 ng/mL; Kp at 8 h ([3]; brain/plasma, 8 h): 0.29; concentration at 8 h ([3]; plasma, 8 h, read-out: Blood drug concentration): 277 ng/mL
7 | O=C(N[C@@H]1COCC[C@H]1N1Cc2ccc(-c3nnc(C(F)F)o3)cc2S1(=O)=O)C(F)F [Compound 13] | 133 | 7.13 | 4.53 | 4.42 | 3.05 | 1.85 | 1.05 | 22 | 21.4 | 0.5 | 2.63 | 8 | 1.52 | 97.0 | 1.52 | 218 | 174 | 0.09 | 1780 | – | Kp at 1 h ([3]; brain/plasma): 0.07; concentration at 1 h [3, 5]: 2950 ng/mL
8 | CC(F)(F)C(=O)N[C@H]1[C@H](N2Cc3ccc(-c4nnc(C(F)F)o4)cc3S2(=O)=O)CCCC1(F)F [Compound 7] | 245 | – | – | – | – | – | – | – | – | – | – | – | – | – | – | – | – | – | – | 56.7 | –
